We go through 10 compounds from PMC9516332 (Frontiers in Oncology, 2022).

Structures are written as SMILES. Like-named read-outs stand apart in the source and are kept apart here.

What all share (assay): Kinase panel profiling at 1 µmol/L (MSA or IMAP), percentage inhibition
What all share (type): biochemical

Test [1] concerns the target panel of 255 wild-type kinases (Homo sapiens, UniProt P08631). As to conditions: read-out: %-inhibition at 1 µmol/L, HCK.
Test [2] deals with panel of 255 wild-type kinases (Homo sapiens, UniProt P22607). The settings on record: read-out: %-inhibition at 1 µmol/L, FGFR3.
Test [3] addresses T1, panel of 255 wild-type kinases (Homo sapiens, UniProt P42680).
T1 sequence (P42680 1-631): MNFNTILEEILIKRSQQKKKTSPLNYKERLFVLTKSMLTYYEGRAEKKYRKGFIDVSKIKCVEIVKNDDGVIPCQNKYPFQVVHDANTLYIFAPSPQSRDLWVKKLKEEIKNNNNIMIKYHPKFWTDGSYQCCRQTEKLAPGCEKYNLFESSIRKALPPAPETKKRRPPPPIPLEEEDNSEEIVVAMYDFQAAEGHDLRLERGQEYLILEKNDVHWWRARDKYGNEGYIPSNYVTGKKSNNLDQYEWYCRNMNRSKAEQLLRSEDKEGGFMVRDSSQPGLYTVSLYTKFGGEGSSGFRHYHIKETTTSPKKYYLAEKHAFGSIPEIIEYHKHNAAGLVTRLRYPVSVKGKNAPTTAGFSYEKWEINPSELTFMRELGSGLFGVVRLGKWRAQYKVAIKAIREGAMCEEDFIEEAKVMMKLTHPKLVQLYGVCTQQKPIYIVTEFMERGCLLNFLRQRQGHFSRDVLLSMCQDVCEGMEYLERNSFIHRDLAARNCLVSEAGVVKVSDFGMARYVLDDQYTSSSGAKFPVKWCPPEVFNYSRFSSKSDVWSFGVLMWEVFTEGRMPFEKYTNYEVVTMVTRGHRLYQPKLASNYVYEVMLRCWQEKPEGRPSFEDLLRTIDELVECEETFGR
The settings on record: read-out: %-inhibition at 1 µmol/L, TEC.

In test [4] the target is panel of 255 wild-type kinases (Homo sapiens, UniProt P68400). The settings on record: read-out: %-inhibition at 1 µmol/L, CK2α1/β.
Test [5] concerns the target T2, panel of 255 wild-type kinases (Homo sapiens, UniProt Q16832).
T2 sequence (Q16832 22-855): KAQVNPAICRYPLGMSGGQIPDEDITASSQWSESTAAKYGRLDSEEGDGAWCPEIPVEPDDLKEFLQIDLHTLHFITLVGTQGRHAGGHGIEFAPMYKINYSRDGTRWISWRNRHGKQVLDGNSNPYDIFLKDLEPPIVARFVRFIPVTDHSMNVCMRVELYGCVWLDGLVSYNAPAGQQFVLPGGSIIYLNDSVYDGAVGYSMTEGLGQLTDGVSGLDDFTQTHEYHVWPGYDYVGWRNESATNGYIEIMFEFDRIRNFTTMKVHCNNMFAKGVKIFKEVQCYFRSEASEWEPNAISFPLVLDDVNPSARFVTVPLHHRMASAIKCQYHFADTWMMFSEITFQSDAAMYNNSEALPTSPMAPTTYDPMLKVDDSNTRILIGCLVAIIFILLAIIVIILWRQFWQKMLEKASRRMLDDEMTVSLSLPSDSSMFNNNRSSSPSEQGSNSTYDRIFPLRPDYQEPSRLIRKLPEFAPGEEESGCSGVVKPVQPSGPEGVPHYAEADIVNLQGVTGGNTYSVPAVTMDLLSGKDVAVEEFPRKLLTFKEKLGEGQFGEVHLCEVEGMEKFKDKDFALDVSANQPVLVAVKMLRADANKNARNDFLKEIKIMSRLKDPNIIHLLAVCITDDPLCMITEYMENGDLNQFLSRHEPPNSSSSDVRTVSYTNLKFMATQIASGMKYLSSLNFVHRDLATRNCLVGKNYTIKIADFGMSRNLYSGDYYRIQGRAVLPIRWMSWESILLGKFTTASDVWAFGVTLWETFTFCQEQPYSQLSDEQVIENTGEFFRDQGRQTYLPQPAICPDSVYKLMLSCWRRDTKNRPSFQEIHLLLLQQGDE
As to conditions: read-out: %-inhibition at 1 µmol/L, DDR2.

Test [6] has as its target panel of 255 wild-type kinases (Homo sapiens, UniProt Q5VT25). As to conditions: read-out: %-inhibition, MRCKα.
Test [7] addresses T3, panel of 255 wild-type kinases (Homo sapiens, UniProt Q96BR1).
T3 sequence (Q96BR1 1-496): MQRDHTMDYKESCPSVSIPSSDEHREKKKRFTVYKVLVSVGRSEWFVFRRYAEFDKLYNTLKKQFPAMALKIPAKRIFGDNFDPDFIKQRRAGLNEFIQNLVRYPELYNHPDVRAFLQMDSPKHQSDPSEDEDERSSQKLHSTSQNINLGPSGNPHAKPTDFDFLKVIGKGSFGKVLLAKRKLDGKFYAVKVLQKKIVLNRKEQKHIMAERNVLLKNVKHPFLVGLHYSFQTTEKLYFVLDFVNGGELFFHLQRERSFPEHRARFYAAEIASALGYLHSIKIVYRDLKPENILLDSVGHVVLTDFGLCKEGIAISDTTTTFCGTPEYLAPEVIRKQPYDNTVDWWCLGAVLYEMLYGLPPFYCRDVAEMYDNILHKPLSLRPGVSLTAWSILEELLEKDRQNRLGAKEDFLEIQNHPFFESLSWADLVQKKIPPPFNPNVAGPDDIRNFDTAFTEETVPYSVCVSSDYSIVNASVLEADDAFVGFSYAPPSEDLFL
As to conditions: read-out: %-inhibition at 1 µmol/L, SGK3.

The target in test [8] is panel of 255 wild-type kinases (Homo sapiens, UniProt Q96GD4). As to conditions: read-out: %-inhibition AurB.
For test [9], the target named is panel of 255 wild-type kinases (Homo sapiens, UniProt Q9H2G2). As to conditions: read-out: %-inhibition at 1 µmol/L, SLK.
For test [10], the target named is panel of 255 wild-type kinases (Homo sapiens, UniProt Q9UQM7). The settings on record: read-out: %-inhibition CaMK2α.
[11] abbreviates: kinase HCK, 1 µmol/L single concentration.
The mark [12] stands for this setting: kinase FGFR3, 1 µmol/L single concentration.
Setting [13] is: kinase TEC, 1 µmol/L single concentration.
Where [14] appears, read: kinase CK2α1/β, 1 µmol/L single concentration.
Where [15] appears, read: kinase DDR2, 1 µmol/L single concentration.
[16] abbreviates: MRCKα, 1 µmol/L single concentration.
Where [17] appears, read: kinase SGK3, 1 µmol/L single concentration.
[18] abbreviates: AurB kinase assay, 1 µmol/L single concentration.
Setting [19] is: kinase SLK, 1 µmol/L single concentration.
Where [20] appears, read: CaMK2α kinase assay, 1 µmol/L single concentration.

Take `Cn1cc(-c2cc3c(N4CCN(c5ncc([C@@](C)(N)c6ccc(F)cc6)cn5)CC4)ncnn3c2)cn1` [avapritinib]: the inhibition at 1 µM was 52% in test [1] (setting [11]); 41% in test [2] (setting [12]); 16% in test [3] (setting [13]); -3.77% in test [4] (setting [14]); 98% in test [5] (setting [15]); 4% in [6] (setting [16]). Moreover, the inhibition at 1 µM was -2% in test [7] (setting [17]), 20% in test [8] (setting [18]), 36% in test [9] (setting [19]) and -2.45% in test [10] (setting [20]).

`C[C@H](Nc1ncnc2nc[nH]c12)c1cc2cccc(Cl)c2c(=O)n1-c1ccccc1` [duvelisib]: the inhibition at 1 µM in test [1] (setting [11]) was 6%; in [2] (setting [12]), 0.29%; in test [3] (setting [13]), 1.84%; in test [4] (setting [14]), -2.47%; in test [5] (setting [15]) it was 8%; in test [6] (setting [16]) it was -3.44%. Moreover, the inhibition at 1 µM in test [7] (setting [17]) came to 1.26%; in test [8] (setting [18]), 0.417%; in test [9] (setting [19]), 7.44%; in test [10] (setting [20]), 0.0129%.

`COc1cc2ncnc(Nc3ccc(F)c(Cl)c3)c2cc1NC(=O)/C=C/CN1CCCCC1` [dacomitinib]: the inhibition at 1 µM in [1] (setting [11]) was 57%; in [2] (setting [12]), 26%; in test [3] (setting [13]), 20%; in [4] (setting [14]), -4%; in test [5] (setting [15]) it was 93%; in test [6] (setting [16]), 4.59%. Besides, the inhibition at 1 µM in test [7] (setting [17]) is -20%; in test [8] (setting [18]), 2%; in test [9] (setting [19]) it was 78%; in test [10] (setting [20]) it was -1.13%.

Turning to `CCN1CCN(c2ccc(Nc3cc(N(C)C(=O)Nc4c(Cl)c(OC)cc(OC)c4Cl)ncn3)cc2)CC1` [infigratinib], the inhibition at 1 µM was 22% in test [1] (setting [11]); 102% in [2] (setting [12]); 7% in test [3] (setting [13]); -4% in test [4] (setting [14]); 63% in [5] (setting [15]); 0.933% in [6] (setting [16]). For the same compound, the inhibition at 1 µM in test [7] (setting [17]) was -3%; in test [8] (setting [18]), -5%; in test [9] (setting [19]), 16%; in test [10] (setting [20]), -1.22%.

As to `Cn1cnc2c(F)c(Nc3ccc(Br)cc3Cl)c(C(=O)NOCCO)cc21` [selumetinib], the inhibition at 1 µM in [1] (setting [11]) is 4%; in test [2] (setting [12]), 2.76%; in [3] (setting [13]) it was 16%; in [4] (setting [14]) it was -5%; in test [5] (setting [15]) it was -0.119%; in test [6] (setting [16]), 2.24%. The inhibition at 1 µM in [7] (setting [17]) is -4%; in test [8] (setting [18]), 12%; in test [9] (setting [19]), 8%; in test [10] (setting [20]), -1.34%.

For `CNC(=O)c1ccc(-c2cnc3ncc(Cc4ccc5ncccc5c4)n3n2)cc1F` [capmatinib], the inhibition at 1 µM is -1.63% in [1]; 2% in test [2]; 4% in test [3]; -3.18% in [4]; -1% in test [5]; 0.535% in test [6]. Moreover, the inhibition at 1 µM in test [7] was -2.49%; in test [8], 4.24%; in test [9], 7.55%; in [10] it was -0.603%.

In the case of `COC(=O)N[C@@H](C)CNc1nccc(-c2cn(C(C)C)nc2-c2cc(Cl)cc(NS(C)(=O)=O)c2F)n1` [encorafenib], the inhibition at 1 µM in test [1] (setting [11]) is -5.46%; in test [2] (setting [12]), 1%; in test [3] (setting [13]), -1.53%; in test [4] (setting [14]) it was -1%; in [5] (setting [15]), -7%; in test [6] (setting [16]), 0.0684%. Moreover, the inhibition at 1 µM in test [7] (setting [17]) is 5%; in test [8] (setting [18]) it was -0.69%; in test [9] (setting [19]), 6%; in [10] (setting [20]), -2.55%.

With `Cc1cc(Nc2ncnc3ccc(NC4=NC(C)(C)CO4)cc23)ccc1Oc1ccn2ncnc2c1` [tucatinib], the inhibition at 1 µM is -3% in [1] (setting [11]); 2.63% in test [2] (setting [12]); 18% in test [3] (setting [13]); -4% in test [4] (setting [14]); 10% in [5] (setting [15]); 0.364% in test [6] (setting [16]). Besides, the inhibition at 1 µM is -4% in test [7] (setting [17]), -0.568% in [8] (setting [18]), 11% in test [9] (setting [19]) and -3% in test [10] (setting [20]).

Turning to `C=CC(=O)N1CCC([C@@H]2CCNc3c(C(N)=O)c(-c4ccc(Oc5ccccc5)cc4)nn32)CC1` [zanubrutinib], the inhibition at 1 µM in test [2] (setting [12]) was 4.61%; in [3] it was 96%; in test [4] (setting [14]), -2%; in [5] (setting [15]) it was -3.23%; in test [6] (setting [16]), -0.931%; in test [7] (setting [17]), -3.7%. Also, the inhibition at 1 µM in test [8] (setting [18]) is -4%; in [9] (setting [19]), 2.36%; in test [10] (setting [20]), 2%.

As for `Cn1cnc2c(F)c(Nc3ccc(Br)cc3F)c(C(=O)NOCCO)cc21` [binimetinib], the inhibition at 1 µM in test [1] (setting [11]) was -8%; in test [2] (setting [12]), 1.4%; in test [3] (setting [13]), 0.674%; in test [4] (setting [14]), -4.22%; in test [5] (setting [15]), -10%; in test [6] (setting [16]), -5.53%. The inhibition at 1 µM in test [7] (setting [17]) was -0.74%; in test [8] (setting [18]), -3.18%; in [9] (setting [19]) it was 3.27%; in [10] (setting [20]) it was -4.55%.
